This test addresses Fibroblast growth factor 22 (Homo sapiens) (UniProt Q9HCT0). In words: binders of human FGF22 protein, dose response, FGF22 synaptogenesis inhibitor project, biophysical, thermal shift, cherry-pick (AID 687022). Conditions: recombinant FGF22 thermal shift, SYPRO orange melting.

Data on 51 compounds can be found in PubChem BioAssay AID687022 (Broad Institute, 2013).

The structures appear in SMILES notation. Calls of active or inactive are those of the source.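 How the source made its calls: active means Fitted curve of melting temperature shift crosses the 1.0 threshold at or below the sample's highest valid tested concentration; inconclusive means Flat fit with activity 30 to 70, or invalid fit; inactive means Opposite direction, flat within 30, or no crossing.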 A value given as a limit tells only on which side of the number the result lay.

Sequence of Fibroblast growth factor 22 (Homo sapiens) (Q9HCT0 whole entry, looked up): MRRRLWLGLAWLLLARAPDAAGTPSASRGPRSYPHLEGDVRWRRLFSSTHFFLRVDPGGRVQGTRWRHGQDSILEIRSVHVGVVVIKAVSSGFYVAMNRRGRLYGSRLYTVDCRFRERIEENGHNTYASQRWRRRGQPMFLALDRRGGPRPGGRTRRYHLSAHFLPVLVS

Take `O=C(NN1C(=O)CSC1=S)C(=O)NN1C(=O)CSC1=S`: the AbsAC1 (concentration giving Tm-shift threshold 1.0) is 5.24 µM.

On to `O=C(N/N=C/c1ccncc1)c1cc2ccccc2o1`, for which the AbsAC1 (concentration giving Tm-shift threshold 1.0) was 6.07 µM.

Turning to `C[C@@H]1CN([C@H](C)CO)C(=O)c2cc(NC(=O)Nc3ccc(C(F)(F)F)cc3)ccc2O[C@@H]1CN(C)Cc1ccc(C(=O)O)cc1`, the AbsAC1 (concentration giving Tm-shift threshold 1.0) was 11.5 µM.

In the case of `COc1ccccc1NC(=O)c1ccc(NC(=O)c2ccc(=O)[nH]c2)cc1`, the AbsAC1 (concentration giving Tm-shift threshold 1.0) was 4.02 µM.

`O=[N+]([O-])c1ccc(Nc2ccccc2)nc1`: the AbsAC1 (concentration giving Tm-shift threshold 1.0) is 5.31 µM.

As to `C[C@H](CO)N1C[C@H](C)[C@@H](CN(C)Cc2ccc(C(=O)O)cc2)Oc2cc(/C=C/c3ccccc3)ccc2S1(=O)=O`, the AbsAC1 (concentration giving Tm-shift threshold 1.0) was > 42 µM (inactive).

Regarding `CCOc1ccc(-c2cc(C(=O)N/N=C/c3cccnc3)c3ccccc3n2)cc1`, the AbsAC1 (concentration giving Tm-shift threshold 1.0) was 13 µM.

In the case of `C/C(=N\NC(=O)COc1ccc(C)cc1C(C)C)c1cc2ccccc2o1`, the AbsAC1 (concentration giving Tm-shift threshold 1.0) is 20.9 µM.

Turning to `C[C@@H]1CN([C@@H](C)CO)S(=O)(=O)c2ccc(-c3ccncc3)cc2O[C@@H]1CN(C)C(=O)Nc1ccc(F)cc1`, the AbsAC1 (concentration giving Tm-shift threshold 1.0) was 4.72 µM.

`S=c1[nH]c2cc3ccccc3cc2[nH]1`: the AbsAC1 (concentration giving Tm-shift threshold 1.0) is 10.7 µM.

`CCN1C(=O)C(CC(=O)Nc2ccc(F)cc2)N(Cc2ccc3c(c2)OCO3)C1=S` (stereo unspecified): the AbsAC1 (concentration giving Tm-shift threshold 1.0) was 2.83 µM.

`Cn1c(C(=O)NCCc2c[nH]c3ccccc23)cc2sccc21`: the AbsAC1 (concentration giving Tm-shift threshold 1.0) was 2.76 µM.

Take `O=C(O)Cc1ccc(NC(=O)c2ccc(Cl)c(Cl)c2)cc1`: the AbsAC1 (concentration giving Tm-shift threshold 1.0) was 4.5 µM.

As to `CNC(=S)N(Cc1ccc(OC)cc1)C1CC(=O)N(c2ccc(C(=O)OC)cc2)C1=O` (stereo unspecified), the AbsAC1 (concentration giving Tm-shift threshold 1.0) is 3.43 µM.

For the compound `O=C(N/N=C/c1ccncc1)c1cccc(NC(=O)c2ccc(Cl)cc2)c1`, the AbsAC1 (concentration giving Tm-shift threshold 1.0) is 9.27 µM.

For the compound `COc1cccc(NC(=O)N(C)C[C@H]2Oc3cc(-c4ccccc4F)ccc3S(=O)(=O)N([C@H](C)CO)C[C@H]2C)c1`, the AbsAC1 (concentration giving Tm-shift threshold 1.0) was 4.99 µM.

Turning to `O=C(O)c1ccccc1Nc1ccc([N+](=O)[O-])cc1`, the AbsAC1 (concentration giving Tm-shift threshold 1.0) is 16.2 µM.

Regarding `C=C1[C@@H](O)[C@H](Cc2ccccc2)N(Cc2ccccc2Br)S1(=O)=O`, the AbsAC1 (concentration giving Tm-shift threshold 1.0) was 15.5 µM.

`O=C(Nc1ccc(S(=O)(=O)NCc2ccccc2)cc1)c1ccccc1[N+](=O)[O-]`: the AbsAC1 (concentration giving Tm-shift threshold 1.0) is 12 µM.

For the compound `COc1cc(NC(=O)c2cnc(N)o2)cc(C(=O)Nc2cccc(C(F)(F)F)c2)c1`, the AbsAC1 (concentration giving Tm-shift threshold 1.0) is 3.44 µM.

Take `CCCCNC(=O)c1onc(CSc2ccc(F)c(F)c2)c1C(=O)NCCCC`: the AbsAC1 (concentration giving Tm-shift threshold 1.0) was 0.929 µM.

Consider `O=[N+]([O-])c1ccc2nc(-c3ccccc3)[nH]c2c1`, for which the AbsAC1 (concentration giving Tm-shift threshold 1.0) was 3.88 µM.

For the compound `C[C@H](CO)N1C[C@H](C)[C@H](CN(C)C(=O)Nc2ccc3c(c2)OCO3)Oc2cc(C3=CCCCC3)ccc2S1(=O)=O`, the AbsAC1 (concentration giving Tm-shift threshold 1.0) was 20.3 µM.

In the case of `COc1ccc(NC(=O)N(C)C[C@@H]2Oc3ccc(NC(=O)Cc4ccccc4)cc3C(=O)N([C@H](C)CO)C[C@H]2C)cc1`, the AbsAC1 (concentration giving Tm-shift threshold 1.0) is 39.8 µM.

On to `Cc1ccc(NC(=O)c2sc3ncn(CC(=O)N4CCN(c5ccccn5)CC4)c(=O)c3c2C)cc1F`, for which the AbsAC1 (concentration giving Tm-shift threshold 1.0) is 10.6 µM.

On to `C[C@@H]1CN([C@H](C)CO)S(=O)(=O)c2ccc(-c3ccncc3)cc2O[C@@H]1CN(C)C(=O)Nc1ccc(C(F)(F)F)cc1`, for which the AbsAC1 (concentration giving Tm-shift threshold 1.0) is 15.3 µM.

As to `O=S(=O)(ON(c1ccccc1)S(=O)(=O)c1ccccc1)c1ccccc1`, the AbsAC1 (concentration giving Tm-shift threshold 1.0) was 14 µM.

Consider `O=C(Nc1cccc(C(F)(F)F)c1)c1cccc(NS(=O)(=O)c2ccc(O)c(C(=O)O)c2)c1`, for which the AbsAC1 (concentration giving Tm-shift threshold 1.0) is 2.6 µM.

For `CO[C@@H](CN(C)S(=O)(=O)c1cccc(Cl)c1)[C@@H](C)CN([C@@H](C)CO)S(=O)(=O)c1cccc(Cl)c1`, the AbsAC1 (concentration giving Tm-shift threshold 1.0) was 5.29 µM.

`COc1ccc(/C=N/NC(=O)c2cc(-c3ccc4c(c3)OCO4)n[nH]2)cc1OC`: the AbsAC1 (concentration giving Tm-shift threshold 1.0) is 18.1 µM.

On to `COc1cc(/C=N/NC(=O)c2[nH]nc3c2CCc2ccccc2-3)ccc1O`, for which the AbsAC1 (concentration giving Tm-shift threshold 1.0) was 6.1 µM.

As for `Cc1ccccc1S(=O)(=O)NCC[C@@H]1CC[C@@H](NC(=O)Nc2cccc(Cl)c2)[C@@H](CO)O1`, the AbsAC1 (concentration giving Tm-shift threshold 1.0) was 8.07 µM.

For `C[C@H]1CN([C@@H](C)CO)S(=O)(=O)c2ccc(-c3ccncc3)cc2O[C@H]1CN(C)C(=O)Nc1ccc(C(F)(F)F)cc1`, the AbsAC1 (concentration giving Tm-shift threshold 1.0) was 11.8 µM.

For the compound `O=C(CNC(=O)c1ccc(S(=O)(=O)N2CCCC2)cc1)N/N=C/c1ccc(F)cc1`, the AbsAC1 (concentration giving Tm-shift threshold 1.0) is 16.5 µM.

Take `O=C(NCC[C@@H]1CC[C@H](NC(=O)c2cnccn2)[C@H](CO)O1)Nc1ccc(F)cc1`: the AbsAC1 (concentration giving Tm-shift threshold 1.0) is 41 µM.

With `CC(=O)C1=C(O)C(=O)N(c2ccc(S(=O)(=O)Nc3nccs3)cc2)C1c1ccc(F)cc1` (stereo unspecified), the AbsAC1 (concentration giving Tm-shift threshold 1.0) is > 19.5 µM (inactive).

With `CO[C@H](CN(C)S(=O)(=O)c1cccc(Cl)c1)[C@H](C)CN([C@H](C)CO)S(=O)(=O)c1cccc(Cl)c1`, the AbsAC1 (concentration giving Tm-shift threshold 1.0) was 14.1 µM.

On to `O=C(CCc1c[nH]c2ccccc12)Nc1ccc(Nc2cccnc2)cc1`, for which the AbsAC1 (concentration giving Tm-shift threshold 1.0) was 4.36 µM.

As to `CC(=O)Nc1ccc(S(=O)(=O)Nc2nc3ccccc3nc2Nc2cccc(S(N)(=O)=O)c2)cc1`, the AbsAC1 (concentration giving Tm-shift threshold 1.0) was 12.7 µM.

Regarding `Cc1ccc(Cl)cc1N1CCN(C(=O)Cc2c(C(=O)O)[nH]c3ccc(Cl)cc23)CC1`, the AbsAC1 (concentration giving Tm-shift threshold 1.0) was 4.47 µM.

For `Clc1ccc(Nc2ccc(NCc3ccccc3)nn2)cc1`, the AbsAC1 (concentration giving Tm-shift threshold 1.0) is 2.73 µM.

On to `O=C(O)c1cccc(NS(=O)(=O)c2ccc(-c3ccc(S(=O)(=O)Nc4cccc(C(=O)O)c4)cc3)cc2)c1`, for which the AbsAC1 (concentration giving Tm-shift threshold 1.0) was 1.2 µM.

For the compound `CSc1ccc(/C=N/NC(=O)c2ccc3nc[nH]c3c2)cc1`, the AbsAC1 (concentration giving Tm-shift threshold 1.0) was 1.58 µM.

Consider `O=C(N/N=C/c1c[nH]c2ccc(Br)cc12)c1ccc2c(c1)OCO2`, for which the AbsAC1 (concentration giving Tm-shift threshold 1.0) is 14.3 µM.

With `CCN1C(=O)C(CC(=O)Nc2ccc(OC)cc2)N(CCc2ccc(OC)cc2)C1=S` (stereo unspecified), the AbsAC1 (concentration giving Tm-shift threshold 1.0) was 6.95 µM.

Take `CCOc1ccc(N2C(=O)C(CC(=O)Nc3ccc(F)cc3)N(Cc3ccccn3)C2=S)cc1` (stereo unspecified): the AbsAC1 (concentration giving Tm-shift threshold 1.0) is 9.4 µM.

Consider `CC(=O)c1ccc(NC(=O)Nc2cccnc2)cc1`, for which the AbsAC1 (concentration giving Tm-shift threshold 1.0) is 7.05 µM.

Consider `C/C=C/c1ccc2c(c1)O[C@@H](CN(C)C(=O)Nc1cccc(F)c1)[C@@H](C)CN([C@@H](C)CO)S2(=O)=O`, for which the AbsAC1 (concentration giving Tm-shift threshold 1.0) is 7.47 µM.

Consider `S=C(NCCN1CCOCC1)Nc1ccc(-c2nc3ccccc3[nH]2)cc1`, for which the AbsAC1 (concentration giving Tm-shift threshold 1.0) is 7.5 µM.

On to `O=C(NN=Cc1ccc(O)cc1)c1ccccc1NS(=O)(=O)c1cccs1`, for which the AbsAC1 (concentration giving Tm-shift threshold 1.0) is 5.76 µM.

Consider `O=C(C[C@@H]1CC[C@@H]2[C@H](COC[C@@H](O)CN2S(=O)(=O)c2cccc(F)c2)O1)Nc1ccc(-c2ccccc2)cc1`, for which the AbsAC1 (concentration giving Tm-shift threshold 1.0) is 22.3 µM.
